Data: paper PMC9096165 (Frontiers in Pharmacology, 2022)

Columns and labels:
[1] = system: CXCL1; test: CXCL1 mRNA expression in F11 cells (RT PCR); assay type: cell-based; conditions: CYP 100 nM alone
Text: (§1) For these experiments, cells at 18th passage were used.
(§2) Triplicate samples were run for each gene.

[2] = system: TRPV1; test: TRPV1 protein level in F11 cells (Western blotting); assay type: cell-based; conditions: CYP 100 nM alone
Text: as §1, §2
Control and treated F11 cells were collected and lysed in an ice-cold RIPA buffer containing protease and phosphatase inhibitor cocktail (Sigma-Aldrich, United States). The extracted proteins were quantified using BCA assay (Thermo, United States). NuPAGE lithium dodecyl sulfate sample buffer (Cat#NP007, Thermo, United States) and NuPAGE sample reducing agent (Cat#NP0004, Thermo, United States) were added to the samples and then put in the Thermoblock (Eppendorf, United Kingdom) at 75°C for 10 min. Protein lysates (30 μg) were separated on NuPAGE bis–tris glycine gradient precast gel (Cat#NP0321PK2, Invitrogen, United States) and electroblotted on a PVDF membrane (Cat#IPVH00010, Millipore, United States) using a semi-dry system (Thermo, United States). Non-specific binding sites were blocked by blocking solution (Cat#000105, Invitrogen, United States) for 15 min at RT. […] The relative densities of the immunoreactive bands were determined and normalized with respect to actin, using Fiji software. […]

[3] = system: CXCR1; test: CXCR1 mRNA expression in F11 cells (RT PCR); assay type: cell-based; conditions: CYP 100 nM alone
Text: as §1, §2

[4] = system: CXCR2; test: CXCR2 mRNA expression in F11 cells (RT PCR); assay type: cell-based; conditions: CYP 100 nM alone
Text: as §1, §2

[5] = system: F11 cells; test: F11 cell viability (CellTiter AQueous One); assay type: cell-based; conditions: differentiated F11 cells, 24 h, 5 to 200 nM
Description: as §1
[…] Cell viability was determined using the colorimetric method CellTiter AQueous One Solution Cell Proliferation Assay (Promega Corporation, United States), as previously reported ([Brandolini et al., 2017]). The quantity of formed formazan, as a function of viability, was measured at 492 nm using an ELISA plate reader, Infinite F200 (Tecan, Männedorf, Swiss). The results from five independent experiments were expressed as absorbance at 492 nm.

[6] = system: TRPV1; test: TRPV1 mRNA expression in F11 cells (RT PCR); assay type: cell-based; conditions: CYP 100 nM alone
Text: as §1, §2

[7] = system: urinary bladder; assay type: in vivo; conditions: chronic CYP 75 mg kg^−1 i.p. three times every third day
Description: CYP was administered to the animals by the intraperitoneal (i.p.) route (5 ml kg^−1) at the dosage of 75 mg kg^−1 for three times every third day to elicit chronic bladder irritation, as previously described ([Vizzard et al., 1996]).
Animals pre-treated with the vehicle or a single high oral dose of DF2755A (20 mg kg^−1; 12 h before the first CYP administration) followed by repeated lower doses administration (7 mg kg^−1 twice daily for 7 days) during IC development were deeply anesthetized with isoflurane (4%) and then killed.
After killing, rat abdomen was opened through a midline incision, and bladder and proximal urethra were exposed. A catheter was inserted into the bladder through the urethra and a loose ligature was placed around the neck of the urinary bladder. Bladder was inflated with saline via the catheter to slightly distend the bladder and ligature was tightened to maintain proper distension. Bladder was then excised cutting above the insertion point of ureters, and therefore the bladder neck was not included into the bladder sample. Bladders were opened using scissors and, after gross macroscopic evaluation and weighing, each bladder was cut into two equal pieces (named B1 and B2) and weighted again individually. One piece (B1) was placed in Eppendorf, then snap-frozen in liquid nitrogen, and stored at −80°C until quantification using ELISA assay. The second piece (B2) was placed in 10% formalin and stored at room temperature. Then the same samples were placed in 70% ethanol, then processed in paraffin blocks, and then trimmed according to the longitudinal plane to ensure the correct analysis of all the bladder sample. Sections were stained with hematoxylin and eosin (HE), and slides were then digitalized using a Pathscan® Touch scanner in the bright field mode with a ×20 objective. For the microscopic observations of bladder inflammation, the following parameters were analyzed: bladder edema in scores (n = 10/group), bladder hemorrhage in scores (n = 10/group), urothelial loss in scores (n = 10/group), and total inflammatory score, which was calculated by adding all the individual lesion scores (n = 10/group).

[8] = system: TRPV4; conditions: F11 cells, CYP 100 nM alone
Description: F11 hybridoma cell line (ECACC 08062601), chosen as a model of dorsal root ganglion (DRG) neurons ([Platika et al., 1985]; [Brandolini et al., 2017]) was cultivated in DMEM (Corning, United States) supplemented with 10% heat-inactivated FBS (Sigma-Aldrich St. Louis, CO, United States), 1% penicillin/streptomycin, and 1% glutamine (Sigma-Aldrich, United States) at 37°C, in a humidified 95% air and 5% CO2 atmosphere. For these experiments, cells at 18th passage were used. Cells were differentiated with the rat nerve growth factor (rNGF; Sigma-Aldrich, United States). rNGF was dissolved in DMEM with 1% penicillin/streptomycin and 1% glutamine (FBS free) at the final concentration of 50 ng ml^−1. Medium was replaced every 3 days until complete differentiation, which occurred after 7 days.
TRPV1 and TRPV4 mRNA expression and protein levels and CXCR1, CXCR2, and CXCL1 mRNA levels were evaluated in F11 cells exposed to CYP. […] The total RNA concentration was determined in RNAase-free water using Nanodrop, while the concentration was determined using the Qubit Fluorometer 3.0 (Thermo, United States). […] Relative expression levels were calculated for each sample after normalization against the reference gene, using the 2^−ΔΔCt method for comparing relative fold expression differences.

[9] = system: acute CYP-induced IC model; design: method as in Dornelles et al., 2014; conditions: acute CYP-induced IC rat model with inflammatory bladder infiltrate; ref Dornelles et al., 2014; cited from earlier work

SMILES	CXCL1 mRNA expression versus control [1]	TRPV1 protein level versus control [2]	CXCR1 mRNA expression versus control [3]	CXCR2 mRNA expression versus control [4]	neuronal cell viability [5]	TRPV1 mRNA expression versus control [6]	bladder hemorrhage [7]	inflammatory infiltrate and urothelial hyperplasia in urinary bladder [7]	bladder edema, mean score ([7]; score 0–4 (Table 1))	urothelial loss, mean score ([7]; score 0–4 (Table 1))	TRPV4 mRNA expression versus control [8]	effect on nociceptive behavior [9]
O=P1(N(CCCl)CCCl)NCCCO1 (stereo not drawn) [CYP, Cyclophosphamide, reference compound]	significantly increased	increased	significantly increased	significantly increased	did not modulate neuronal cell viability	significantly increased	no hemorrhage	no inflammatory infiltrate and no urothelial hyperplasia	0.4 ± 0.16	0.1 ± 0.10	did not change	–
O=C(Nc1ccc([N+](=O)[O-])cc1O)Nc1ccccc1Br [SB225002]	–	–	–	–	–	–	–	–	–	–	–	antinociceptive effect
